According to US20120134979A1, “METHODS AND COMPOSITIONS FOR THE TREATMENT OF SICKLE CELL DISEASE” (priority 2010, published 2012):

How the values were obtained:
normal human RBCs = test: 2,3-DPG levels in primary cultured normal human RBCs; assay type: cell-based; details: for 2,3-DPG levels / production (agonist): primary cultured human RBCs from normal individuals, normoxic; for NECA-mediated 2,3-DPG induction (effect of antagonist): RBCs from normal individuals, 10 μM NECA, antagonists at 10 μM
Protocol: (§1) Isolation of total erythrocytes and treatment of human and mouse erythrocytes in vitro. Blood collected with heparin as an anti-coagulant was centrifuged at 240×g for 10 min at room temperature, followed by aspiration of plasma and white interface. Packed red blood cells (RBCs) were washed 3 times with culture media (F-10 Ham's with 1% penicillin/streptomycin, 10% fetal bovine serum (FBS), and re-suspended to 4% hematocrit (HCT). One ml of RBCs was added to each well of a 12-well plate. Normal RBCs purified from humans were treated with different concentrations of 5′-(N-ethyl-carboxamido) adenosine (NECA, an adenosine receptor agonist, Sigma-Aldrich, St. Louis, Mo.) ranging from 1-50 μM for different time points (from 1 to 18 hr) under normoxic conditions. Normal RBCs were treated with 10 μM NECA in the presence or absence of adenosine receptor antagonists, including theophylline, PSB36, SCH442416, MRS1754 and MRS3777 (Tocris Bioscience, St. Louis, Mo.) at 10 μM. In addition, normal RBCs were treated directly with the A2BR agonist (BAY 60-6583, Bayer HealthCare AG, Wuppertal, Germany) or the A2AR agonist (CGS21680) (Tocris). Similarly, the mouse RBCs were treated with or without NECA at 10 μM in the presence or absence of theophylline (10 μM). In addition, RBCs purified from 4 adenosine receptor deficient mice were treated with 10 μM NECA. After 18 hours, cells were collected and 2,3-DPG levels were measured as described below. RBCs were purified from SCD patients and treated with or without 10 μM NECA, 5 units/ml polyethylene glycol-adenosine deaminase (PEG-ADA) or 3 mmol/L glycolic acid (Sigma-Aldrich), 10 μM MRS1754 (A2BR antagonist) under ambient oxygen (normoxia) or different levels of hypoxic conditions (for 3 hours with shaking at 37° C. At the end of experiments, 2,3-DPG levels were measured and the percentage of sickled cells determined as described below.
(§2) 2,3-DPG analysis. 2,3-DPG concentration in RBCs was detected by a commercially available kit (Roche, Nutley, N.J., and as described in Ericson A, de Verdier C H. A modified method for the determination of 2,3-diphosphoglycerate in erythrocytes. Scandinavian journal of clinical and laboratory investigation. 1972; 29(1):84-90).

normal mouse RBCs = test: 2,3-DPG levels in isolated mouse RBCs treated in vitro; assay type: cell-based; details: for NECA-mediated 2,3-DPG induction (effect of inhibitor): normal mouse RBCs
Protocol: as §1, §2

RBCs from SCD patients [1] = test: Hypoxia-induced 2,3-DPG in erythrocytes purified from SCD patients; assay type: cell-based, human; details: hypoxic conditions (2% oxygen)
Protocol: as §1, §2

RBCs from SCD patients [2] = test: Hypoxia-induced sickling of RBCs from SCD patients; assay type: cell-based, human; details: RBCs from individuals with SCD, hypoxic conditions
Protocol: as §1
(§3) Morphological study of erythrocytes and quantification of reticulocytes by flow cytometry. Blood smears were stained using the WG16-500 ml kit (Sigma-Aldrich) for sickled cells and observed using 100× oil immersion objective of Olympus BX60 microscope. […] The percentages of sickled cells among the counted cells were calculated. Reticulocyte was labeled by Retic-COUNT Reagent (Becton Dickinson) and quantified by flow cytometry (Perumbeti, et al., A novel human gamma-globin gene vector for genetic correction of sickle cell anemia in a humanized sickle mouse model: critical determinants for successful correction. Blood. 2009; 114(6):1174-1185).

mouse RBCs = test: cAMP levels in isolated mouse RBCs; assay type: cell-based
Protocol: Isolation of total erythrocytes and treatment of human and mouse erythrocytes in vitro. Blood collected with heparin as an anti-coagulant was centrifuged at 240×g for 10 min at room temperature, followed by aspiration of plasma and white interface. […] After 18 hours, cells were collected and 2,3-DPG levels were measured as described below. RBCs were purified from SCD patients and treated with or without 10 μM NECA, 5 units/ml polyethylene glycol-adenosine deaminase (PEG-ADA) or 3 mmol/L glycolic acid (Sigma-Aldrich), 10 μM MRS1754 (A2BR antagonist) under ambient oxygen (normoxia) or different levels of hypoxic conditions (for 3 hours with shaking at 37° C. At the end of experiments, 2,3-DPG levels were measured and the percentage of sickled cells determined as described below.
cAMP measurement. Quantitative assays for cAMP contents in RBCs were performed by using a commercial enzyme immunoassay kit (Assay Designs Inc., Michigan, USA).

SCD Tg mice [3] = test: Hematological parameters of SCD Tg mice treated with PEG-ADA or PSB1115 for 8 weeks; assay type: in vivo, mouse; details: 8 weeks treatment
Source text: Mice. Berkley sickle cell disease transgenic mice (SCD Tg mice), expressing exclusively human sickle hemoglobin (HbS) were purchased from The Jackson Laboratory Inc (Paszty, C. Transgenic and gene knock-out mouse models of sickle cell anemia and the thalassemias. Curr Opin Hematol 4, 88-93, 1997). C57BL/6 mice used as controls were purchased from Harlan Laboratories. Adenosine receptor deficient mice were obtained from the following sources: A1R-deficient mice (Jurgen Schnermann, NIDDK, NIH); A2AR-deficient mice (Jiang-Fan Chen, Boston University School of Medicine); A2BR-deficient mice (Michael R. Blackburn, University of Texas-Houston Medical School); and A3R-deficient mice (Marlene Jacobson, Merck Research Laboratories). All receptor deficient mice were backcrossed at least 10 generations onto the C57Blk/6J background and were genotyped according to established protocols (Sun, D., et al. Mediation of tubuloglomerular feedback by adenosine: evidence from mice lacking adenosine receptors. Proc Natl Acad Sci USA 98, 9983-9988, 2001; Nemeth, Z. H., et al. Adenosine receptor activation ameliorates type 1 diabetes. FASEB J, 2007; Chen, J. F., et al. A2A adenosine receptor deficiency attenuates brain injury induced by transient focal ischemia in mice. J Neurosci 19, 9192-9200, 1999; Salvatore, C. A., et al. Disruption of the A3 adenosine receptor gene in mice and its effect on stimulated inflammatory cells. The Journal of Biological Chemistry 275, 4429-4434, 2000). Animals were maintained in accordance with institutional and NIH guidelines under research protocols that were reviewed and approved by the University of Texas Health Science Center at Houston Animal Welfare Committee.
(§4) Chronic PEG-ADA therapy. SCD transgenic mice, at eight weeks of age, were divided to two groups. One group was injected with 2.5 U PEG-ADA weekly for 8 weeks. This dosing protocol was designated SCD with PEG-ADA treatment regimen (SCD+PEG-ADA). Another group was injected with normal saline for 8 weeks; it was designated as SCD without PEG-ADA treatment regimen (SCD). Wild-type mice (C57Bl/6) used as control were injected with saline or PEG-ADA as with the SCD groups.
(§5) Chronic treatment with A2BR antagonist, PSB1115. SCD transgenic mice or wild type mice (eight weeks of age) were divided to two groups, one groups was injected with 200 μg of PSB1115 (an A2B receptor antagonist: obtained from Tocris Bioscience, St. Louis, Mo.) in PBS, daily for 8 weeks. One of groups was injected with saline.
as §3

SCD Tg mice [4] = test: Life span of RBCs in SCD Tg mice (in vivo biotin labelling); parameters: species or system mouse
Protocol: Measurement of life span of RBCs in SCD Tg mice. SCD Tg mice were treated with or without PEG ? ADA (2.5 unit/week) for 8 weeks. At 6 week-treatment, RBCs were labeled in vivo by using N-hydroxysuccinimide (NHS) biotin and the life span of circulating red blood cells was measured as described (Perumbeti, et al. A novel human gamma-globin gene vector for genetic correction of sickle cell anemia in a humanized sickle mouse model: critical determinants for successful correction. Blood. 2009; 114(6):1174-1185).
Specifically, 50 mg/kg of NHS biotin was injected into the retro-orbital plexus of SCD Tg mice (prepared in 100 μl sterile saline just prior to injection; initially dissolved at 50 mg/ml in N,—N,-dimethylacetamide) Blood samples (only 5 μl) were collected after first day of biotin-injection from tail vein by venipuncture to determine the percentage of RBCs labeled with biotin. Subsequently, 5 μl of blood were obtained by tail vein every 3 days for measurement of biotinylated RBCs until the 10th day. The percentage of biotinylated RBCs was calculated by determining the fraction of peripheral blood cells labeled with Ter-119 (to identify RBCs) that were also labeled with a streptavidin-conjugated fluorochrome by flow cytometry.

SCD Tg mice [5] = test: Organ weight, histology and heme content in SCD Tg mice after chronic treatment; assay type: in vivo, mouse; details: 8 weeks treatment, lung, liver, spleen (PSB1115 also kidney)
Protocol: as §4, §5
Mouse organ isolation and histological analysis. Mice were anesthetized and body weight was determined. Organs were isolated and weighed. Half of each organ was quickly frozen in liquid nitrogen and then stored at −80° C. for heme content measurements as described below. The remaining half of each organ was fixed with 4% paraformaldehyde in PBS overnight at 4° C. Fixed tissues were rinsed in PBS, dehydrated through graded ethanol washes, and embedded in paraffin. 5 μm sections were collected on slides and stained with haematoxylin and eosin (H&E). Semiquantification of histological changes was analyzed by Image-Plus, Pro software.
Heme content measurement in multiple mouse tissues. Different organs were quickly removed and frozen in liquid nitrogen as described above. Heme was extracted from organs by homogenization with 1% Triton x-100 in PBS with 1× proteinase inhibitors (Roche) and the supernatant was collected following centrifugation at 20,000 g for 10 minutes at 4° C. Heme content was quantified following the instructions of QuantiChrom Heme Assay Kit (BioAssay Systems, Hayword, Calif.).

SCD Tg mice [6] = test: 2,3-DPG in RBCs and saturated Hb in SCD Tg mice after chronic treatment; assay type: in vivo, mouse; details: steady state, 8 weeks treatment
Protocol: as §4, §5, §2
Measurement of percentage of saturated Hb in mice. Percentage of saturated Hb (SpO2) in mice was measured by Oxysat (Kent Scientific Corp, CT). Mice were held in mouse holders (Kent Scientific Corp, CT) and Oxysat sensor was placed on a site approximately 1 cm from the base of the tail. When mouse was calm, the SpO2 was continuously recorded for about 2 minutes. The data were collected and SpO2 was calculated by average of SpO2 in two-minute measurement.

N#Cc1c(N)nc(SCC(N)=O)c(C#N)c1-c1ccc(OCC2CC2)cc1 [BAY 60-6583]
2,3-DPG levels / production (agonist) (normal human RBCs): induced 2,3-DPG production in a dosage-dependent manner

CCNC(=O)[C@H]1O[C@@H](n2cnc3c(N)nc(NCCc4ccc(CCC(=O)O)cc4)nc32)[C@H](O)[C@@H]1O [CGS21680]
2,3-DPG levels / production (agonist) (normal human RBCs): not

O=S(=O)(NCCNC/C=C/c1ccc(Br)cc1)c1cccc2cnccc12 [H-89]
NECA-mediated 2,3-DPG induction (effect of inhibitor) (normal mouse RBCs; NECA 10 μM): significantly inhibited
hypoxia-mediated induction of 2,3-DPG (RBCs from SCD patients [1]): reduced
percentage of sickled cells (RBCs from SCD patients [2]): significantly reduced

CCCn1c(=O)c2[nH]c(-c3ccc(OCC(=O)Nc4ccc(C#N)cc4)cc3)nc2n(CCC)c1=O [MRS1754]
NECA-mediated 2,3-DPG induction (effect of antagonist) (normal human RBCs): inhibited
hypoxia-mediated induction of 2,3-DPG (RBCs from SCD patients [1]): reduced
percentage of sickled cells (RBCs from SCD patients [2]): significantly reduced

c1ccc(Oc2nc(NC3CCCCC3)c3[nH]cnc3n2)cc1 [MRS3777]
NECA-mediated 2,3-DPG induction (effect of antagonist) (normal human RBCs): not

CCNC(=O)[C@H]1O[C@@H](n2cnc3c(N)ncnc32)[C@H](O)[C@@H]1O [NECA, 5′-N-ethylcarboxamidoadenosine]
NECA-mediated 2,3-DPG induction (normal mouse RBCs; RBCs from A2BR-deficient mice): did not occur
2,3-DPG levels (normal mouse RBCs; primary normal mouse mature erythrocytes, NECA 10 μM, 18 hours): stimulated an increase
cAMP production (mouse RBCs; RBCs from A2BR-deficient mice): not
cAMP production (mouse RBCs; RBCs from WT mice): capable of inducing cAMP production
2,3-DPG levels / production (agonist) (normal human RBCs): stimulated 2,3-DPG levels in a dosage and time-dependent manner
hypoxia-mediated induction of 2,3-DPG (RBCs from SCD patients [1]): significantly stimulated a further increase
percentage of sickled cells (RBCs from SCD patients [2]): significantly increased

CCCCn1c(=O)c2[nH]c(C34CC5CC(CC3C5)C4)nc2n(CCCO)c1=O [PSB36]
NECA-mediated 2,3-DPG induction (effect of antagonist) (normal human RBCs): not

CCCn1c(=O)[nH]c2nc(-c3ccc(S(=O)(=O)O)cc3)[nH]c2c1=O [PSB1115, reference compound]
HCT (SCD Tg mice [3]): 31.82 ± 3.43 %
Hb (SCD Tg mice [3]): 8.25 ± 0.29 g/dL
MCH (SCD Tg mice [3]): 12.78 ± 0.46 pg
MCHC (SCD Tg mice [3]): 26.02 ± 1.82 g/dL
MCV (SCD Tg mice [3]): 49.17 ± 1.82 fL
RDW (SCD Tg mice [3]): 28.27 ± 1.36 %
Reticulocyte (SCD Tg mice [3]): 37.15 ± 3.27 %
Sickle cell (SCD Tg mice [3]): 9.07 ± 0.75 %
WBC (SCD Tg mice [3]): 11.95 ± 3.27 k/μl
RBC (SCD Tg mice [3]; mean ± SEM): 6.45 ± 0.45 M/μl
fold increase of half-life of RBCs (SCD Tg mice [4]; chronic treatment vs untreated): 2.75 fold
half-life of RBCs (SCD Tg mice [4]; chronic treatment, untreated 2 days): 132 h
congestion, vascular damage and necrosis in multiple tissues (histology) (SCD Tg mice [5]): reduced
2,3-DPG levels in the RBCs (SCD Tg mice [6]): decreases

COc1ccc(CCCn2ncc3c2nc(N)n2nc(-c4ccco4)nc32)cc1 [SCH442416]
NECA-mediated 2,3-DPG induction (effect of antagonist) (normal human RBCs): not

O=C(O)CO [glycolate, glycolic acid]
hypoxia-mediated induction of 2,3-DPG (RBCs from SCD patients [1]): reduced
percentage of sickled cells (RBCs from SCD patients [2]): significantly reduced

Cn1c(=O)c2[nH]cnc2n(C)c1=O [theophylline]
NECA-mediated 2,3-DPG induction (effect of inhibitor) (normal mouse RBCs; NECA 10 μM): prevented
NECA-mediated 2,3-DPG induction (effect of antagonist) (normal human RBCs): inhibited
